The record followed here is patent US20260055088A1, “HETEROCYCLIC COMPOUND, METHOD FOR PREPARING SAME, AND PHARMACEUTICAL USE THEREOF” (Jiangsu Hengrui Pharmaceuticals Co., Ltd., priority 2022, published 2026).

As usually defined, the IC50 is the midpoint of a concentration-inhibition curve.

This test has as its target Nav1.8 ion channel stably expressed on HEK293 cells (Homo sapiens (Human), UniProt Q9Y5Y9). The test can be described thus: Inhibitory activity against Nav1.8, manual patch clamp. In kind it is cell-based. Particulars: resting protocol (-80 mV to 10 mV), 1 μM TTX, read-out: IC50 for the inhibition of Nav1.8 channel activity. From the text:
The objective of the experiment was to investigate the effects of the compounds on the Nav1.8 ion channel in ex vivo experiments. The Nav1.8 ion channel is stably expressed on HEK293 cells. After the Nav1.8 current stabilized, the effects of the compounds on the Nav1.8 ion channel were obtained by comparing the magnitudes of the Nav1.8 currents before and after the compounds were applied.
• 1) A patch clamp amplifier: patch clamp PC-505B (WARNER instruments)/MultiClamp 700A (Axon instrument) • 2) A digital-to-analog converter: Digidata 1440A (Axon CNS)/Digidata 1550A (Axon instruments) • 3) A micromanipulator: MP-225 (SUTTER instrument) • 4) An inverted microscope: TL4 (Olympus) • 5) Glass micropipette puller: PC-10 (NARISHIGE) • 6) Microelectrode glass capillaries: B12024F (Wuhan VitalSense Scientific Instruments Co., Ltd.) • 7) Dimethyl sulfoxide (DMSO) D2650 (Sigma-Aldrich) • 8) TTX AF3014 (Affix Scientific)
The compounds for preparing the intracellular and extracellular fluids were purchased from Sigma (St. Louis, MO) except for the NaOH and KOH for the acid-base titrations. The extracellular fluid (mM) was: NaCl, 137; KCl, 4; CaCl2, 1.8; MgCl2, 1; HEPES, 10; glucose, 10; pH 7.4 (NaOH titration). The intracellular fluid (mM) was: aspartic acid, 140; MgCl2, 2; EGTA, 11; HEPES, 10; pH 7.2 (CsOH titration). All test and control compound solutions contained 1 μM TTX.
The test compounds were stored at a concentration of 9 mM in dimethyl sulfoxide (DMSO). On the testing day, the compounds were further dissolved in the extracellular fluid to prepare the required concentrations.
1) After the compounds were prepared into solutions with specified concentrations, the compound solutions were sequentially added to channels in ascending order according to their concentrations, and each channel was labeled.
2) A cell was transferred to the perfusion chamber. Positive pressure was applied inside the electrode, and the electrode tip was brought into contact with the cell. The three-way valve of the suction device was switched to the state where all three ways were open, and negative pressure was then applied to the electrode, allowing a high-resistance seal to form between the electrode and the cell. The application of negative pressure was continued to rupture the cell membrane, leading to the formation of a current pathway.
3) After the cell membrane rupture current stabilized, perfusion was performed with different concentrations in sequence. If the current remained stable for at least one minute, perfusion was performed with the next concentration.
4) The perfusion chamber was cleaned. The perfusion chamber was rinsed with the compound solutions in descending order according to their concentrations, with each concentration applied for 20 s. Finally, the perfusion chamber was rinsed with the extracellular fluid for 1 min.
The cell was clamped at −80 mV and then depolarized to 10 mV using a square wave lasting for 10 ms to obtain a Nav1.8 current. This procedure was repeated once every 5 seconds. The maximum current induced by the square wave was detected. After the current stabilized, perfusion was performed with the test compounds. After the reaction stabilized, the strength of the blocking was calculated.
The data were stored on a computer system and analyzed. Data acquisition and analysis were performed using pCLAMP 10 (Molecular Devices, Union City, CA), and the results were reviewed by a manager. “Current stabilized” means that the changes in current over time were within a limited range. The magnitude of the current after stabilization was used to calculate the effect of the compound at this […].
The inhibitory activity of the compounds of the present disclosure against Nav1.8 was determined through the above assay.
(The patch-clamp technique gives a direct electrical read-out from membranes.)
With `CNNC(=O)c1cc(NC(=O)[C@@H]2O[C@@](C)(C(F)(F)F)[C@@H](C)[C@H]2c2ccc(F)c(F)c2OC)ccn1` [Example 19, (2R,3S,4S,5R)-3-(3,4-Difluoro-2-methoxyphenyl)-4,5-dimethyl-N-(2-(2-methylhydrazine-1-carbonyl)pyridin-4-yl)-5-(trifluoromethyl)tetrahydrofuran-2-carboxamide], the IC50 worked out at 1.01 nM.

For the compound `C/N=C(\N)c1cc(NC(=O)[C@@H]2O[C@@](C)(C(F)(F)F)[C@@H](C)[C@H]2c2ccc(F)c(F)c2OC)ccn1` [Example 21, (2R,3S,4S,5R)-3-(3,4-Difluoro-2-methoxyphenyl)-4,5-dimethyl-N-(2-((Z)—N′-methylcarbamimidoyl)pyridin-4-yl)-5-(trifluoromethyl)tetrahydrofuran-2-carboxamide], the IC50 is 1.35 nM.

With `COc1c([C@H]2[C@H](C(=O)Nc3ccnc(C(=O)N4CCCO4)c3)O[C@@](C)(C(F)(F)F)[C@H]2C)ccc(F)c1F` [Example 15, (2R,3S,4S,5R)-3-(3,4-Difluoro-2-methoxyphenyl)-N-(2-(isoxazolidine-2-carbonyl)pyridin-4-yl)-4,5-dimethyl-5-(trifluoromethyl)tetrahydrofuran-2-carboxamide], the IC50 was 1.78 nM.

Consider `COc1c([C@H]2[C@H](C(=O)Nc3ccnc(C(=O)N4CCCN4)c3)O[C@@](C)(C(F)(F)F)[C@H]2C)ccc(F)c1F` [Example 14, (2R,3S,4S,5R)-3-(3,4-Difluoro-2-methoxyphenyl)-4,5-dimethyl-N-(2-(pyrazolidine-1-carbonyl)pyridin-4-yl)-5-(trifluoromethyl)tetrahydrofuran-2-carboxamide], for which the IC50 was found to be 2.12 nM.

Regarding `COc1c([C@H]2[C@H](C(=O)Nc3ccnc(C(N)CO)c3)O[C@@](C)(C(F)(F)F)[C@H]2C)ccc(F)c1F` (stereo partly drawn) [Example 6, (2R,3S,4S,5R)—N-(2-(1-Amino-2-hydroxyethyl)pyridin-4-yl)-3-(3,4-difluoro-2-methoxyphenyl)-4,5-dimethyl-5-(trifluoromethyl)tetrahydrofuran-2-carboxamide], the IC50 turned out to be 1.87 nM.

`COc1c([C@H]2[C@H](C(=O)Nc3ccnc(C(=O)NOCC4CC4)c3)O[C@@](C)(C(F)(F)F)[C@H]2C)ccc(F)c1F` [Example 18, N-(Cyclopropylmethoxy)-4-((2R,3S,4S,5R)-3-(3,4-difluoro-2-methoxyphenyl)-4,5-dimethyl-5-(trifluoromethyl)tetrahydrofuran-2-carboxamido)picolinamide]: the IC50 was 1.89 nM.

For the compound `CO/N=C(\N)c1cc(NC(=O)[C@@H]2O[C@@](C)(C(F)(F)F)[C@@H](C)[C@H]2c2ccc(F)c(F)c2OC)cc[n+]1[O-]` [Example 44, 4-((2R,3S,4S,5R)-3-(3,4-Difluoro-2-methoxyphenyl)-4,5-dimethyl-5-(trifluoromethyl)tetrahydrofuran-2-carboxamido)-2-((Z)—N′-methoxycarbamimidoyl)pyridine 1-oxide], the IC50 came to 0.53 nM.

In the case of `CCNNC(=O)c1cc(NC(=O)[C@@H]2O[C@@](C)(C(F)(F)F)[C@@H](C)[C@H]2c2ccc(F)c(F)c2OC)ccn1` [Example 22, (2R,3S,4S,5R)-3-(3,4-Difluoro-2-methoxyphenyl)-N-(2-(2-ethylhydrazine-1-carbonyl)pyridin-4-yl)-4,5-dimethyl-5-(trifluoromethyl)tetrahydrofuran-2-carboxamide], the IC50 was 0.68 nM.

`COc1c([C@H]2[C@H](C(=O)Nc3ccnc(NC(C)=O)c3)O[C@@](C)(C(F)(F)F)[C@H]2C)ccc(F)c1F` [Example 11, (2R,3S,4S,5R)—N-(2-Acetamidopyridin-4-yl)-3-(3,4-difluoro-2-methoxyphenyl)-4,5-dimethyl-5-(trifluoromethyl)tetrahydrofuran-2-carboxamide]: the IC50 was 1.54 nM.

In the case of `COc1c([C@H]2[C@H](C(=O)Nc3ccnc(NC(N)=O)c3)O[C@@](C)(C(F)(F)F)[C@H]2C)ccc(F)c1F` [Example 9, (2R,3S,4S,5R)-3-(3,4-Difluoro-2-methoxyphenyl)-4,5-dimethyl-5-(trifluoromethyl)-N-(2-ureidopyridin-4-yl)tetrahydrofuran-2-carboxamide], the IC50 was found to be 3.24 nM.
